Laboratory results: patent publication US20200398077A1, “SYSTEM AND METHOD TO ERADICATE A MAJORITY OF DISEASE-CAUSING GERMS AND PRODUCE AVIRULENT PHENOTYPE SURVIVORS SUSCEPTIBLE TO MICROBICIDES USING A LIGHT DOSE REGIMENT” (priority 2019, published 2020)

Experiments:
[1] = test system: Depigmented Generation 1 avirulent phenotype survivors (MRSA G1); assay: Kirby-Bauer zones of inhibition (ZOI) antibiotic susceptibility assay, depigmented survivor Generation 1; as to Susceptibility class (CLSI): key: R = resistant; S = susceptible; format: cell-based, S. aureus; conditions: for Susceptibility class (CLSI) / Zone diameter: Depigmented Generation 1 after light dose regiment, Kirby-Bauer ZOI; for Resistance/susceptibility in words (heatmap profile, FIG. 8): MRSA G1 (Generation 1), panel 122, after light dose regiment
Procedure: (§1) Table 7 below show and example of a Clinical laboratories Science Institute (CLSI) reference table typically used by clinicians and clinical microbiology laboratories to establish whether a clinical isolate is susceptible, intermediate or resistant to a particular type of antibiotic under the Kirby-Bauer ZOI assay:
(§2) In one example, the Kirby-bauer Zones of Inhibition (Z01) assay was performed on the untreated MRSA parent strain and the two generations of the depigmented avirulent phenotype survivors susceptible to microbicides were created by applying the light dose regiment of system 10 and the method thereof discussed above based on the CLSI guidelines, See Table 8 below:
(§3) The first generation (G1) is the avirulent phenotype survivors susceptible to microbicides created by system 10 and the method thereof and the second generation (G2) is the avirulent phenotype survivors susceptible to microbicides created by system 10 and the method thereof. In this example, the ZOI for Linezolid is indicated at 90, the ZOI for Norfloxacin is indicated at 92, the ZOI for Cefprozil is indicated at 94, ZOEs 96 and 98 are blank, ZOI 100 is for Rifampin, ZIO 102 is for Oxacillin and ZOI 104 is for Tetracycline. The growth control for Generation 1 (G1), Generation 2 (G2) and the wild type (WT) is indicated at 106, 108 and 110, respectively. In this example, Methicillin Resistant, S. aureus ATCC 33592. In this example, WT is Oxacillin is considered equivalent to methicillin when describing a MRSA strain. In this example, the ZOIs were measured at 24 hours and 72-hours past-challenge. Generation 1 was serially passaged onto an antibiotic-free TSA plate, then transferred to TSB liquid culture prior to performing the ZOI assay. Generation 2 was transferred from Generation 1, serially passaged onto an antibiotic-free TSA plate, then transferred to a TSB liquid culture prior to performing the ZOI assay. […] Thus, the avirulent phenotype survivors susceptible to microbicides are stable over multiple generations.
(§4) See e.g., Clinical and Laboratory Standards Institute, Performance Standards for Antimicrobial Susceptibility Testing, 29th Edition 950 West Valley Road Suite 2500, Wayne, Pa. 19087 USA, in this example Oxacillin is synonymous with methicillin when describing MRSA.

[2] = test system: Depigmented Generation 2 avirulent phenotype survivors (MRSA G2); assay: Kirby-Bauer zones of inhibition (ZOI) antibiotic susceptibility assay, depigmented survivor Generation 2; as to Susceptibility class (CLSI): key: R = resistant; S = susceptible; format: cell-based, S. aureus; conditions: for Susceptibility class (CLSI) / Zone diameter: Depigmented Generation 2 after light dose regiment, Kirby-Bauer ZOI; for Resistance/susceptibility in words (heatmap profile, FIG. 8): MRSA G2 (Generation 2), panel 124, after light dose regiment
Procedure: as §1, §2, §3, §4

[3] = test system: S. aureus ATCC 33592 (MRSA) Parental Wild-Type; assay: Kirby-Bauer zones of inhibition (ZOI) antibiotic susceptibility assay, untreated MRSA parent strain; as to Susceptibility class (CLSI): key: R = resistant; S = susceptible; format: cell-based; conditions: for Resistance/susceptibility in words (heatmap profile, FIG. 8): Parental Wild-Type, panel 120, CLSI M100-ED29:2019; for Susceptibility class (CLSI) / Zone diameter: S. aureus ATCC 33592 (MRSA), untreated parent, Kirby-Bauer ZOI
Procedure: as §1, §2, §3, §4

| SMILES | Susceptibility class (CLSI) [1] | Zone diameter [1] | Resistance/susceptibility in words (heatmap profile, FIG. 8) [1] | Susceptibility class (CLSI) [2] | Zone diameter [2] | Resistance/susceptibility in words (heatmap profile, FIG. 8) [2] | Resistance/susceptibility in words (heatmap profile, FIG. 8) [3] | Susceptibility class (CLSI) [3] | Zone diameter [3] |
| --- | --- | --- | --- | --- | --- | --- | --- | --- | --- |
| CO[C@H]1/C=C/O[C@@]2(C)Oc3c(C)c(O)c4c(O)c(c(/C=N/N5CCN(C)CC5)c(O)c4c3C2=O)NC(=O)/C(C)=C\C=C\[C@H](C)[C@H](O)[C@@H](C)[C@@H](O)[C@@H](C)[C@H](OC(C)=O)[C@@H]1C [Rifampin] | S | 45.04 mm | susceptible | S | 48.68 mm | susceptible | resistant | R | No Inhibition |
| Cc1onc(-c2ccccc2)c1C(=O)N[C@@H]1C(=O)N2[C@@H]1SC(C)(C)[C@@H]2C(=O)O [Oxacillin] | S | 28.04 mm | susceptible | S | 27.25 mm | susceptible | resistant | R | No Inhibition |
| CN(C)[C@@H]1C(O)=C(C(N)=O)C(=O)[C@@]2(O)C(O)=C3C(=O)c4c(O)cccc4[C@@](C)(O)[C@H]3C[C@@H]12 [Tetracycline] | S | 34.66 mm |  | S | 31.31 mm |  |  | R |  |
| CC(=O)NC[C@H]1CN(c2ccc(N3CCOCC3)c(F)c2)C(=O)O1 [Linezolid] | S | 35.11 mm |  | S | 32.8 mm |  | susceptible | S | 31.33 mm |
| CCn1cc(C(=O)O)c(=O)c2cc(F)c(N3CCNCC3)cc21 [Norfloxacin] | S | 32.68 mm |  | S | 30.17 mm |  | susceptible | S | 27.67 mm |
| CC=CC1=C(C(=O)O)N2C(=O)[C@@H](NC(=O)[C@H](N)c3ccc(O)cc3)[C@H]2SC1 [Cefprozil] | S | 42.99 mm | susceptible | S | 42.98 mm | susceptible | resistant | R | No Inhibition |
